Results on 13 molecules are retold here after patent US20250186411A1, “Methods of Treating Disorders Associated with Overactivation of IKKB” (The United States Government as represented by the …, priority 2023, published 2025).

The structures appear in SMILES notation. Where two headings read alike, the source gives them in different places.

Series [1] relates to KLF15 promoter (pEZX-FR03hKLF15p human podocytes). Kind of series: KLF15 reporter high-throughput screening assay in human podocytes (firefly/renilla luciferase). It counts as cell-based. Particulars: for fold induction at 1 µM: Homo sapiens, read-out: Fold Change (KLF15 reporter activity). Here is the method:
Briefly, these podocytes proliferate under permissive conditions (gamma interferon at 33° C.), but differentiate under nonpermissive conditions (37° C.).
The amplified fragment contains MluI and PmeI RE sites and was subcloned into the MluI and PmeI cloning site of the pEZX-FR03 Firefly luciferase (FLuc) and Renilla luciferase (Rluc) reporter cloning vector (GeneCopoeia) to generate pEZX-FR03hKLF15p. Following verification of the sequence by restriction and μsequencing, the pEZX-FR03hKLF15p construct (which contains a puromycin resistance cassette) was transfected into human podocytes followed by selection in puromycin-containing media for 2 weeks. Surviving podocytes clones were pooled together for further analysis.
The library of compounds from the National Cancer Institute (Approved Oncology Drugs Set VI; Natural Products Set III; Diversity Set V; and Mechanistic Diversity Set II) were added to a final concentration of 1 μM in 0.5% DMSO in the low FBS cell culture media (0.2% FBS) using liquid handling system PipetMax (Gilson). After 24 hours incubation at 37° C., the Luc-Pair™ Duo-Luciferase HT Assay Kit (GeneCopoeia LF015) were used and firefly and renilla luciferase activity was determined using the SpectraMax M3 (Molecular Devices). Positive controls were all-trans retinoic acid (atRA) (1 μM) and dexamethasone (DEX) (1 μM). Negative controls were DMSO and cell-free media.
(§1) To identify small molecule inducers of KLF15 expression in human podocytes, human podocytes were generated with a dual reporter, firefly luciferase directed at the KLF15 promoter region and renilla luciferase (pEZX-FR03hKLF15p). […] The positive controls were inducers of KLF15 expression, dexamethasone (DEX) and all-trans retinoic acid (atRA), and […] and cell-free wells served as negative controls.

For series [2], the system named is KLF15 promoter with mutation in the GRE (pEZX-FR03hKLF5p-mutant podocytes). Kind of series: GR-mutant KLF15 reporter assay. It counts as cell-based, human. To be noted: as compared to DMSO.
The subject of series [3] is KLF15 promoter (pEZX-FR03hKLF5p human podocytes). Kind of series: Lipopolysaccharide treatment in human podocytes, KLF15 reporter activity. It counts as cell-based. To be noted: as compared to DMSO. The protocol: (§2) Differentiated pEZX-FR03hKLF5p human podocytes were treated with 25 μg/ml lipopolysaccharide (LPS) or vehicle and 1 μM KLF15 agonist or vehicle control for 24 hours. Firefly and renilla luciferase assay were measured initially to determine relative KLF15 reporter activity.

The test system of a further series is human podocytes. The series can be described thus: Cell viability of podocytes (renilla activity, MTS assay). It counts as cell-based. Particulars: for toxicity to human podocytes: analogue screen; for renilla activity in dose-response: higher doses (10^4 nM), relative to DMSO. The protocol: as §2
(§3) Differentiated pEZX-FR03hKLF5p human podocytes were treated with 0.4 μg/ml adriamycin (ADR) or vehicle and 1 μM KLF15 agonist or vehicle control for 24 hours. Firefly and renilla luciferase assay were measured initially to determine relative KLF15 reporter activity.
To assess cell viability, the CellTiter 96® AQueous One Solution Reagent (Promega) was added to the culture media and plates were incubated for 2 hours at 37° C. with 5% CO2.
In general terms: Tetrazolium dyes change colour on reduction, which living cells bring about.

Series [4] relates to KLF15 promoter (pEZX-FR03hKLF15p human podocytes). Kind of series: Half maximal effective concentration (EC50) of KLF15 reporter activity. Particulars: KLF15 reporter activity, dose-response, read-out: EC50. It counts as cell-based. Here is the method:
The EC50 was determined using nonlinear regression and then choosing the equation of Sigmoidal function, 4PL method (X is log(concentration); or the equation of log(agonist) vs. response—variable slope).
as §1

Series [5] deals with KLF15 promoter (pEZX-FR03hKLF5p human podocytes). Kind of series: Adriamycin treatment in human podocytes, KLF15 reporter activity. It counts as cell-based. To be noted: as compared to DMSO-treated podocytes. Here is the method:
as §3

Series [6] concerns differentiated human podocytes. Kind of series: Actin stress fiber formation and KLF15 immunocytochemistry. It counts as cell-based. Particulars: LPS-treated podocytes. Here is the method: To determine actin stress fiber formation, differentiated human podocytes were treated with 25 μg/ml LPS or vehicle and 1 μM KLF15 agonist or vehicle control for 24 hours. Subsequently, podocytes were fixed and stained for F-actin using Alexa Fluor 647 Phalloidin (Life Technologies). Fixation, permeabilization, and staining with phalloidin were performed as per the manufacturer's protocol. […] Briefly, phalloidin staining pattern in each cell was classified into the following types: Type A (90% of cell area filled with thick cables), Type B (no thick cables but some cables present), and Type C (no cables visible in the central area of the cell). Unless specified, 100-200 cells were quantified in a blinded manner for each group in three independent experiments.
Differentiated human podocytes were initially washed with phosphate-buffered saline (PBS) and subsequently fixed with 3.7% formaldehyde in the growth medium. Podocytes were washed and permeabilized with 0.25% Triton X-100, and then blocked in 10% normal horse serum (NHS) and incubated with rabbit anti-KLF15 antibody overnight. The next day, cells were washed with PBS and incubated in Donkey anti-Rabbit IgG (H+L) Secondary Antibody, Alexa Fluor™ 568 (Invitrogen) in 10% NHS. Subsequently, cells were washed and incubated with Hoechst (Thermo Fisher Scientific) before mounting.

The test system of series [7] is KLF15 and Synaptopodin expression. The series can be described thus: Real-time PCR of KLF15 and synaptopodin in podocytes under LPS. It counts as cell-based, human. Particulars: podocytes under LPS conditions, vs DMSO. Here is the method:
(§4) Total RNA from cells was extracted by using TRIzol (Life Technologies). First-strand cDNA was prepared from total RNA (up to 1.25 μg) using the SuperScript™ IV VILO™ Master Mix (Life Technologies), and cDNA was amplified in triplicate using PowerUp™ SYBR™ Green Master Mix on an ABI QuantStudio3 (Applied Biosystems). Primers for human and mouse genes were designed using NCBI Primer-BLAST and validated for efficiency before application (Table 1). Data were normalized to housekeeping genes (GAPDH or ACTB) and presented as a fold increase compared with RNA isolated from the control group using the ΔΔCT method.
In general terms: In qPCR the cycle at which signal appears reflects the starting amount.

Another series concerns FVB/n mice. The series can be described thus: LPS-induced proteinuric murine model. It counts as in vivo, mouse. Particulars: LPS proteinuric murine model, concurrent treatment, vs DMSO. Here is the method: In the LPS-induced proteinuric model, all 8-week-old FVB/n mice were initially treated with LPS [intraperitoneal (IP), 10 μg/g, Sigma-Aldrich] or sterile normal saline (IP) at 0- and 24-hour time points as previously described (17). […] Urine was collected and mice were euthanized 48 hours post-LPS treatment.
Urine albumin was quantified by ELISA using a kit from Bethyl Laboratory Inc. Urine creatinine levels were measured in the same samples using the Creatinine Colorimetric Assay Kit (500701; Cayman Chemical) as per manufacturer's protocol.
Briefly, mice were perfused with PBS containing 2.5 mg/ml iron oxide and 1% BSA. At the end of perfusion, kidneys were removed, decapsulated, minced into 1 mm^3 pieces, and digested in PBS containing 1 mg/ml collagenase A. Digested tissue was subsequently passed through a 100 μm cell strainer and collected by centrifugation. The pellet was resuspended in 1 ml PBS and glomeruli were collected using a magnet. The purity of glomeruli was verified under microscopy. Total RNA was isolated from kidney glomeruli of mice using the RNeasy Kit (Qiagen, Germantown, MD).
as §4
Transmission Electron Microscopy (TEM) was done in the Central Microscopy Imaging Center at Stony Brook Medicine. Briefly, after embedding the kidney tissues in epoxy resin, ultrathin sections were stained with uranyl acetate and lead citrate, then mounted on a copper grid, and photographed under a FEI BioTwin G2 Transmission Electron Microscope with AMT XR-60 CCD digital Camera (FEI).

Where [8] appears, read: as compared to DMSO-treated podocytes.
[9] abbreviates: NCI library hits, 1 μM, 24 hours.

On to `CSc1ccc(NC(=O)Nc2ccc(C#N)cn2)cc1` [BT502], for which the “KLF15 activity as compared to DEX-treated podocytes” value in [1] was “higher KLF15 activity”. Also, in [2], the KLF15-mutant reporter activity entry is given as “induced KLF15 activity”. Also, in series [3], the “KLF15 activity in the setting of LPS treatment” value is “maintained the elevated KLF15 activity”. Further, the “toxicity to human podocytes” value with human podocytes is listed as “no observed toxicity”. Further, in the series with human podocytes (setting [8]), the “renilla activity (cell viability) in the setting of LPS treatment” value was “restored renilla activity”.
For the molecule `CSc1ccc(NC(=O)c2ccc(O)cc2)cc1` [BT501], in [1], the “KLF15 activity as compared to DEX-treated podocytes” value was “higher KLF15 activity”. Further, the KLF15-mutant reporter activity result in series [2] is given as “induced KLF15 activity”. Moreover, the “KLF15 activity in the setting of LPS treatment” value in series [3] is on record as “maintained the elevated KLF15 activity”. In the series on human podocytes, the “toxicity to human podocytes” value is listed as “no observed toxicity”.
As a reminder, the EC50 is the concentration that produces a half-maximal response. In the case of `CSc1ccc(NC(=O)Nc2cc(C)ccn2)cc1` [C-7, 1-(4-Methylpyridin-2-yl)-3-(4-methylsulfanylphenyl)urea], the fold induction at 1 µM in series [1] (setting [9]) was determined as 3.17. Also, the half-maximal effective concentration (EC50) in series [4] (Homo sapiens) was determined as 11.9 nM. For the same molecule, the KLF15-mutant reporter activity result in series [2] is “induced similar KLF15 activity”. Moreover, the “KLF15 activity in the setting of adriamycin (ADR)” value (“KLF15 activity … (ADR)” for short) in series [5] is “induced KLF15 activity”. Moreover, in [3], the “KLF15 activity in the setting of LPS treatment” value is “maintained KLF15 activity”. The “cell viability (renilla activity and MTT assay) in the setting of ADR” value with human podocytes (setting [8]) is “maintained”. Further, the “renilla activity in dose-response” value in the series on human podocytes is “significant increase in renilla activity”. The “KLF15 expression and actin stress fiber formation (immunostaining)” value in series [6] is “restored KLF15 expression and actin stress fiber formation”. In addition, the “KLF15 and Synaptopodin expression” value in series [7] is listed as “restored”. In the series with FVB/n mice, the albuminuria result is “significantly abrogated albuminuria”.
As for `O=C(Nc1ccc2ccccc2c1)c1ccc(Cl)cc1Cl` [C-15, 2,4-dichloro-N-(naphthalen-2-yl)benzamide], the fold induction at 1 µM in series [1] (setting [9]) was 2.97. In addition, the EC50 in [4] (Homo sapiens) amounted to 10.9 nM. Further, the KLF15-mutant reporter activity result in [2] is “induced similar KLF15 activity”. Moreover, the “KLF15 activity … (ADR)” value in series [5] was “induced KLF15 activity”.
As to `C[C@@H]1C[C@H]2[C@@H]3CCC4=CC(=O)C=C[C@]4(C)[C@@]3(F)[C@@H](O)C[C@]2(C)[C@@]1(O)C(=O)CO` [DEX, dexamethasone, reference compound], the “renilla activity in dose-response” value in the series on human podocytes is given as “trend towards lower renilla activity”.
`Nc1ccccc1-n1nc2ccc3ccccc3c2n1` [C-9, 2-benzo[e]benzotriazol-2-ylaniline]: the fold induction at 1 µM in [1] (setting [9]) is 2.72. The EC50 in series [4] (Homo sapiens) is 76.3 nM. Further, in series [2], the KLF15-mutant reporter activity entry was “induced similar KLF15 activity”. In addition, in series [5], the “KLF15 activity … (ADR)” value is recorded as “induced KLF15 activity”.
Consider `Clc1ccccc1-c1nc(-c2ccncc2)no1` [C-10, Pifexole], for which, in series [1] (setting [9]), the fold induction at 1 µM was determined as 2.72. Also, the EC50 in series [4] (Homo sapiens) turned out to be 332 nM.
For `FC(F)(F)c1cccc(-c2nc3nc(Cl)c(Cl)nc3[nH]2)c1` [C-16, 5,6-dichloro-2-[3-(trifluoromethyl)phenyl]-1H-imidazo[4,5-b]pyrazine], the fold induction at 1 µM in series [1] (setting [9]) amounted to 2.82. The concentration giving a half-maximal response (EC50) in series [4] (Homo sapiens) came out at 52.1 nM.
With `CC(=NNc1nc2ccccc2s1)c1ccncn1` [C-18, 2-(2-(1-(pyrimidin-4-yl)ethylidene)hydrazinyl)benzo[d]thiazole], the fold induction at 1 µM in series [1] (setting [9]) is 3.29. Also, the EC50 in series [4] (Homo sapiens) came to 156 nM.
For `Oc1ccc(-c2nc3ccccc3s2)cc1` [C-1, Phenol,4-(2-benzothiazolyl)], the “Fold Change (KLF15 reporter activity)” value in series [1] (setting [9]) was found to be 3.0083 fold. In addition, the EC50 in series [4] is 99.6 nM.
On to `CN(C)c1cccc(C=C(C#N)c2ccccc2)c1` [C-4, 2-Propenenitrile, 3-[3-(dimethylamino)phenyl]-2-phenyl-], for which the fold induction at 1 µM in series [1] (setting [9]) was 2.57. The EC50 in series [4] (Homo sapiens) stood at 23.7 nM.
The matching figures for `NC(=O)c1ccccc1OCC(=O)Nc1ccc(Cl)c(Cl)c1` [C-12, 2-[2-(3,4-Dichloroanilino)-2-oxoethoxy]benzamide]: 3.13 and 37.3 nM.
Regarding `Cc1cccnc1NC(=S)Nc1ncccc1C` [C-6, 1,3-bis(3-methylpyridin-2-yl)thiourea], the fold induction at 1 µM in series [1] (setting [9]) worked out at 2.71. Moreover, the EC50 in [4] (Homo sapiens) was determined as 770 nM.
